Experiments:
[1] = tested on: Sprague Dawley rats; assay: Continuous Slow Transvesicular Infusion (CSTI) rat model; assay type: in vivo; parameters: key: F: Produced an increase in bladder capacity in rats relative to baseline capacity; details: intragastric administration, bladder capacity relative to baseline capacity
Experimental: Male Sprague Dawley rats weighing approximately 300 g were used for the study. Rats were anaesthetized with pentobarbitone sodium (50 mg/kg, i.p). Through a median abdominal incision, bladder was exposed and a polyethylene cannula (PE 50) was introduced into the bladder through a small cut on the dome of the bladder and the cannula was secured with a purse string suture. The other end of the cannula was exteriorized subcutaneously at the dorsal neck area. Similarly, another cannula (PE 50) was introduced into the stomach through a paramedian abdominal incision with the free end exteriorized subcutaneously to the neck region. The surgical wounds were closed with silk 4-0 suture and the animal was allowed to recover with appropriate post surgical care. On the following day, the animal was placed in a rat restrainer. The open end of the bladder-cannula was connected to a pressure transducer as well as infusion pump through a three-way stopcock. The bladder voiding cycles were initiated by continuous infusion of normal saline at the rate of 100 μl/min. The repetitive voiding contractions were recorded on a Power Lab on-line data acquisition software. After recording the basal voiding pattern for an hour, the test drug or vehicle was administered directly into stomach through the intragastric catheter and the voiding cycles were monitored for 5 hours. Micturition pressure and frequency were calculated before and after the treatment (at every 30 min interval) for each animal. Bladder capacity was calculated from the micturition frequency, based on the constant infusion of 100 μl/min. The effect of the test drug was expressed as a percentage of basal, pre-drug bladder capacity. WAY 100635 was used as positive control for comparison.

[2] = molecular target: T1, rat MCH1 receptor (Rattus norvegicus, UniProt P97639); assay: Radioligand binding assay at cloned rat MCH1 receptor ([3H]Compound A); details: cloned rat MCH1, Peakr293 cell membranes, 0.08 nM [3H]Compound A, 25° C., 90 minutes; read-out: Ki(MCH-1)
T1 construct: operatively linked to DNA encoding the rat MCH1 receptor so as to permit expression thereof; expressed in transfected cells; host or cells: Human embryonic kidney Peak rapid 293 (Peakr293) cells, transient calcium phosphate transfection, membranes

[3] = in vivo; cited from earlier work

T1 sequence (P97639 whole entry): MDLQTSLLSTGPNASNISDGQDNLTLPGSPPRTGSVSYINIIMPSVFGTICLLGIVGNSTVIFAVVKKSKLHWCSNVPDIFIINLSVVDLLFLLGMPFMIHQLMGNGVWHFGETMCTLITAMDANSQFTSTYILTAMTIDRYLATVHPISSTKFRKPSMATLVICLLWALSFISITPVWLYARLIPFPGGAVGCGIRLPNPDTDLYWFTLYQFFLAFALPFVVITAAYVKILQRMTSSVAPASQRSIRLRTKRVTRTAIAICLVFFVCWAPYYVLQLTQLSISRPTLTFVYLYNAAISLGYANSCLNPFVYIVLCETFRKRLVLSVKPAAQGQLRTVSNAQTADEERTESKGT

Ki [2] [nM] | SMILES | CSTI [1] | food intake induced by the intracerebroventricular application of MCH [3]
2.5 | CC(=O)Nc1cccc(C2CCN(CCCNC(=O)C(c3ccccc3)c3ccccc3)CC2)c1 [Example 3, N-(3-{4-[3-(acetylamino)phenyl]-piperidinyl}propyl)-2,2-diphenylacetamide] | F | 
2.3 | CC(C)C(=O)Nc1cccc(C2CCN(CCCNC(=O)C(c3ccc(F)cc3)c3ccc(F)cc3)CC2)n1 [Example 29] | F | 
1.3 | CC(C)C(=O)Nc1cccc(C2CCN(CCCNC(=O)C(c3ccc(F)cc3)c3ccc(F)cc3)CC2)c1 [Example 1, N-{3-[1-(3-{[BIS(4-FLUOROPHENYL)ACETYL]AMINO}PROPYL)-4-PIPERIDINYL] PHENYL}-2-METHYLPROPANAMIDE] | F | 
 | CN(C)CC1CCc2cc(NC(=O)c3ccc(-c4ccc(F)cc4)cc3)ccc2C1 (centres unmarked) [Example T-226296] |  | inhibit food intake
0.4 | CC(C)C(=O)Nc1ccc(F)c(C2CCN(CCCNC(=O)C(c3ccc(F)cc3)c3ccc(F)cc3)CC2)c1 [Example 35, N-{3-[1-(3-{[bis(4-fluorophenyl)acetyl]amino}propyl)-4-piperidinyl]-4-fluorophenyl}-2-methylpropanamide] | F | 
11.7 | CC(C)C(=O)Nc1cccc(C2CCN(CCCNC(=O)C(C)(C)c3ccc(Cl)cc3)CC2)c1 [Example 8, 2-(4-CHLOROPHENYL)-N-(3-{4-[3-(ISOBUTYRYLAMINO)PHENYL]-1-PIPERIDINYL} PROPYL)-2-METHYLPROPANAMIDE] | F | 
3.6 | CCCC(=O)Nc1cccc(C2CCN(CCCNC(=O)C(c3ccccc3)(c3ccccc3)c3ccccc3)CC2)c1 [Example 97] |  | 
24.4 | Cc1ccc(NC(=O)C(C)C)cc1C1CCN(CCCNC(=O)[C@@H](C)c2ccccc2)CC1 [Example 161, 2-methyl-N-{4-methyl-3-[1-(3-{[(2S)-2-phenylpropanoyl]amino}propyl)-4-piperidinyl]phenyl} propanamide] |  | 
2.9 | CCCC(=O)Nc1cccc(C2CCN(CCCNC(=O)C3(c4ccc(Cl)cc4)CCCCC3)CC2)c1 [Example 99, N-(3-{4-[3-(BUTYRYLAMINO)PHENYL]-1-PIPERIDINYL}PROPYL)-1-(4-CHLOROPHENYL) CYCLOHEXANECARBOXAMIDE] |  | 
4.5 | CC(C)C(=O)Nc1cc(C2CCN(CCCNC(=O)C(c3ccccc3)c3ccccc3)CC2)ccc1F [Example 56] |  | 
4.7 | CCCC(=O)Nc1cc(C2CCN(CCCNC(=O)C(c3ccc(C)cc3)c3ccc(C)cc3)CC2)ccc1F [Example 109] |  | 
7.9 | CC(C)C(=O)Nc1cccc(C2CCN(CCCNC(=O)C3(c4ccc(F)cc4)CCCCC3)CC2)c1 [Example 40, 1-(4-FLUOROPHENYL)-N-(3-{4-[3-(ISOBUTYRYLAMINO)PHENYL]-1-PIPERIDINYL} PROPYL)CYCLOHEXANECARBOXAMIDE] |  | 
39.9 | Cc1ccc(NC(=O)C(C)C)cc1C1CCN(CCCNC(=O)C(F)(F)c2ccccc2)CC1 [Example 124] |  | 
25.6 | CC(C)C(=O)Nc1cc(C2CCN(CCCNC(=O)C3(c4ccc(Cl)cc4)CC3)CC2)ccc1F [Example 47] |  | 
11 | CC(C)C(=O)Nc1cccc(C2CCN(CCCNC(=O)C3(c4ccc(F)cc4)CCCC3)CC2)c1 [Example 36, 1-(4-FLUOROPHENYL)-N-(3-{4-[3-(ISOBUTYRYLAMINO)PHENYL]-1-PIPERIDINYL} PROPYL)CYCLOPENTANECARBOXAMIDE] |  | 
18.7 | Cc1ccc(NC(=O)C(C)C)cc1C1CCN(CCCNC(=O)[C@H](C)c2ccc(Cl)cc2)CC1 [Example 167] |  | 
5.7 | Cc1ccc(NC(=O)C(C)C)cc1C1CCN(CCCNC(=O)[C@@H](C)c2ccc(Cl)cc2)CC1 [Example 166, (2S)-2-(4-chlorophenyl)-N-(3-{4-[5-(isobutyrylamino)-2-methylphenyl]-1-piperidinyl}propyl) propanamide] |  | 
4.5 | CC(C)C(=O)Nc1ccc(F)c(C2CCN(CCCNC(=O)C3(c4ccc(F)cc4)CCCC3)CC2)c1 [Example 129] |  | 
52.2 | CC(C)C(=O)Nc1cccc(C2CCN(CCCNC(=O)C(C)c3ccc(Cl)cc3)CC2)n1 (centres unmarked) [Example 90, 2-(4-CHLOROPHENYL)-N-(3-{4-[6-(ISOBUTYRYLAMINO)-2-PYRIDINYL]-1-PIPERIDINYL} PROPYL)PROPANAMIDE] |  | 
11.2 | CCCC(=O)Nc1cccc(C2CCN(CCCNC(=O)C3(c4ccc(F)cc4)CCCC3)CC2)c1 [Example 101, N-(3-{4-[3-(BUTYRYLAMINO)PHENYL]-1-PIPERIDINYL}PROPYL)-1-(4-FLUOROPHENYL) CYCLOPENTANECARBOXAMIDE] |  | 
2.9 | Cc1ccc(NC(=O)C(C)C)cc1C1CCN(CCCNC(=O)C(C)(C)c2ccc(Cl)cc2)CC1 [Example 91] |  | 
18.9 | CC(C(=O)NCCCN1CCC(c2cccc(NC(=O)C3CC3)c2)CC1)c1ccc(Cl)cc1 (centres unmarked) [Example 116, N-{3-[1-(3-{[2-(4-CHLOROPHENYL)PROPANOYL]AMINO}PROPYL)-4-PIPERIDINYL] PHENYL}CYCLOPROPANECARBOXAMIDE] |  | 
0.6 | Cc1ccc(NC(=O)C(C)C)cc1C1CCN(CCCNC(=O)C(c2ccc(F)cc2)c2ccc(F)cc2)CC1 [Example 32] | F | 
14.8 | CC(C)C(=O)Nc1cc(C2CCN(CCCNC(=O)C(C)(C)c3ccc(Cl)cc3)CC2)ccc1F [Example 49] |  | 
14.6 | Cc1ccc(NC(=O)C(C)C)cc1C1CCN(CCCNC(=O)[C@H](C)c2ccccc2)CC1 [Example 164, 2-methyl-N-{4-methyl-3-[1-(3-{[(2R)-2-phenylpropanoyl]amino}propyl)-4-piperidinyl]phenyl} propanamide] |  | 
90.5 | COc1ccc(NC(=O)C(C)C)cc1C1CCN(CCCNC(=O)C(c2ccccc2)c2ccccc2)CC1 [Example 20] |  | 
4 | O=C(Nc1cccc(C2CCN(CCCNC(=O)C(c3ccccc3)(c3ccccc3)c3ccccc3)CC2)c1)C1CC1 [Example 114] |  | 
3.1 | Cc1ccc(NC(=O)C(C)C)cc1C1CCN(CCCNC(=O)C(c2ccccc2)(c2ccccc2)c2ccccc2)CC1 [Example 94] |  | 
10.2 | CC(C)C(=O)Nc1cccc(C2CCN(CCCNC(=O)C3(c4ccc(F)cc4Cl)CCCCC3)CC2)c1 [Example 138] |  | 

SMILES | Ki [2] [nM] | CSTI [1] | food intake induced by the intracerebroventricular application of MCH [3]
Cc1ccc(NC(=O)C(C)C)cc1C1CCN(CCCNC(=O)C(c2ccccc2)c2ccccc2)CC1 [Example 4] | 2.5 | F | 
CC(C)C(=O)Nc1cccc(C2CCN(CCCNC(=O)C(c3ccccc3)c3ccccc3)CC2)n1 [Example 6] | 5.6 | F | 
CC(C)C(=O)Nc1ccc(F)c(C2CCN(CCCNC(=O)C(c3ccccc3)c3ccccc3)CC2)c1 [Example 24] | 4.7 | F | 

Source: patent US20060217418A1, “Substituted alkyl amido piperidines” (priority 2001, published 2006)
